# Patent publication US8192962B2, “Processes for detecting toxic substances” (Daikin Industries, Ltd., priority 2001, dated 2012)
# Tested on: Unknown protein yeast genes
# Assay: DNA chip mRNA expression in yeast, unknown protein yeast genes (Table 1)
# Assay type: cell-based, Saccharomyces cerevisiae S288C
# Method in brief: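 Ratios compare mRNA levels in stressed and control S. cerevisiae. Each toxicant was applied for two hours to log-phase cultures at 25° C. at a sub-lethal, growth-inhibiting level; fluorescent cDNA (Cy3- or Cy5-dUTP) was hybridized to a genome-wide yeast chip for over 12 h at 65° C.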
structure (smiles),measurement,setting,value
"N#Cc1c(Cl)c(Cl)c(Cl)c(C#N)c1Cl [(9), 2,4,5,6-tetrachloro-1,3-benzenedicarbonitrile]",The level of expressed mRNA in the presence of chemical substance/The level of expressed mRNA in the absence of chemical substance,"yeast gene YKL195W, incubated two hours with chemical substance",3.6
same,The level of expressed mRNA in the presence of chemical substance/The level of expressed mRNA in the absence of chemical substance,yeast gene YKR018C,3.9
same,The level of expressed mRNA in the presence of chemical substance/The level of expressed mRNA in the absence of chemical substance,yeast gene YKR046C,3.9
same,The level of expressed mRNA in the presence of chemical substance/The level of expressed mRNA in the absence of chemical substance,"yeast gene YKR091W, incubated two hours with chemical substance",1.0
same,The level of expressed mRNA in the presence of chemical substance/The level of expressed mRNA in the absence of chemical substance,"yeast gene YLR054C, incubated two hours with chemical substance",2.7
same,The level of expressed mRNA in the presence of chemical substance/The level of expressed mRNA in the absence of chemical substance,"yeast gene YLR149C, incubated two hours with chemical substance",6.2
same,The level of expressed mRNA in the presence of chemical substance/The level of expressed mRNA in the absence of chemical substance,"yeast gene YLR152C, incubated two hours with chemical substance",0.6
same,The level of expressed mRNA in the presence of chemical substance/The level of expressed mRNA in the absence of chemical substance,yeast gene YLR161W,1.0
same,The level of expressed mRNA in the presence of chemical substance/The level of expressed mRNA in the absence of chemical substance,yeast gene YLR177W,1.0
same,The level of expressed mRNA in the presence of chemical substance/The level of expressed mRNA in the absence of chemical substance,"yeast gene YLR194C, incubated two hours with chemical substance",0.9
same,The level of expressed mRNA in the presence of chemical substance/The level of expressed mRNA in the absence of chemical substance,"yeast gene YLR324W, incubated two hours with chemical substance",3.1
same,The level of expressed mRNA in the presence of chemical substance/The level of expressed mRNA in the absence of chemical substance,yeast gene YLR338W,7.9
same,The level of expressed mRNA in the presence of chemical substance/The level of expressed mRNA in the absence of chemical substance,yeast gene YLR346C,8.6
same,The level of expressed mRNA in the presence of chemical substance/The level of expressed mRNA in the absence of chemical substance,"yeast gene YLR350W, incubated two hours with chemical substance",0.6
same,The level of expressed mRNA in the presence of chemical substance/The level of expressed mRNA in the absence of chemical substance,"yeast gene YLR387C, incubated two hours with chemical substance",7.8
same,The level of expressed mRNA in the presence of chemical substance/The level of expressed mRNA in the absence of chemical substance,yeast gene YLR460C,13.9
same,The level of expressed mRNA in the presence of chemical substance/The level of expressed mRNA in the absence of chemical substance,"yeast gene YML117W, incubated two hours with chemical substance",1.0
same,The level of expressed mRNA in the presence of chemical substance/The level of expressed mRNA in the absence of chemical substance,"yeast gene YMR009W, incubated two hours with chemical substance",3.4
same,The level of expressed mRNA in the presence of chemical substance/The level of expressed mRNA in the absence of chemical substance,"yeast gene YMR067C, incubated two hours with chemical substance",4.0
same,The level of expressed mRNA in the presence of chemical substance/The level of expressed mRNA in the absence of chemical substance,yeast gene YMR090W,16.7
same,The level of expressed mRNA in the presence of chemical substance/The level of expressed mRNA in the absence of chemical substance,"yeast gene YMR097C, incubated two hours with chemical substance",2.1
same,The level of expressed mRNA in the presence of chemical substance/The level of expressed mRNA in the absence of chemical substance,"yeast gene YMR102C, incubated two hours with chemical substance",1.7
same,The level of expressed mRNA in the presence of chemical substance/The level of expressed mRNA in the absence of chemical substance,"yeast gene YMR107W, incubated two hours with chemical substance",6.0
same,The level of expressed mRNA in the presence of chemical substance/The level of expressed mRNA in the absence of chemical substance,"yeast gene YMR180C, incubated two hours with chemical substance",1.8
same,The level of expressed mRNA in the presence of chemical substance/The level of expressed mRNA in the absence of chemical substance,"yeast gene YMR184W, incubated two hours with chemical substance",2.1
same,The level of expressed mRNA in the presence of chemical substance/The level of expressed mRNA in the absence of chemical substance,"yeast gene YMR191W, incubated two hours with chemical substance",2.2
same,The level of expressed mRNA in the presence of chemical substance/The level of expressed mRNA in the absence of chemical substance,yeast gene YMR251W,3.1
same,The level of expressed mRNA in the presence of chemical substance/The level of expressed mRNA in the absence of chemical substance,"yeast gene YMR295C, incubated two hours with chemical substance",1.0
same,The level of expressed mRNA in the presence of chemical substance/The level of expressed mRNA in the absence of chemical substance,"yeast gene YMR316W, incubated two hours with chemical substance",2.1
same,The level of expressed mRNA in the presence of chemical substance/The level of expressed mRNA in the absence of chemical substance,"yeast gene YNL044W, incubated two hours with chemical substance",0.8
same,The level of expressed mRNA in the presence of chemical substance/The level of expressed mRNA in the absence of chemical substance,"yeast gene YNL074C, incubated two hours with chemical substance",1.5
same,The level of expressed mRNA in the presence of chemical substance/The level of expressed mRNA in the absence of chemical substance,"yeast gene YNL092W, incubated two hours with chemical substance",2.3
same,The level of expressed mRNA in the presence of chemical substance/The level of expressed mRNA in the absence of chemical substance,"yeast gene YNL115C, incubated two hours with chemical substance",2.6
same,The level of expressed mRNA in the presence of chemical substance/The level of expressed mRNA in the absence of chemical substance,"yeast gene YNL156C, incubated two hours with chemical substance",2.4
same,The level of expressed mRNA in the presence of chemical substance/The level of expressed mRNA in the absence of chemical substance,"yeast gene YNL234W, incubated two hours with chemical substance",2.6
same,The level of expressed mRNA in the presence of chemical substance/The level of expressed mRNA in the absence of chemical substance,"yeast gene YNL281W, incubated two hours with chemical substance",2.8
same,The level of expressed mRNA in the presence of chemical substance/The level of expressed mRNA in the absence of chemical substance,"yeast gene YNL305C, incubated two hours with chemical substance",2.9
same,The level of expressed mRNA in the presence of chemical substance/The level of expressed mRNA in the absence of chemical substance,"yeast gene YNR068C, incubated two hours with chemical substance",6.7
same,The level of expressed mRNA in the presence of chemical substance/The level of expressed mRNA in the absence of chemical substance,"yeast gene YOL032W, incubated two hours with chemical substance",4.5
same,The level of expressed mRNA in the presence of chemical substance/The level of expressed mRNA in the absence of chemical substance,"yeast gene YOL036W, incubated two hours with chemical substance",3.1
same,The level of expressed mRNA in the presence of chemical substance/The level of expressed mRNA in the absence of chemical substance,"yeast gene YOL047C, incubated two hours with chemical substance",0.6
same,The level of expressed mRNA in the presence of chemical substance/The level of expressed mRNA in the absence of chemical substance,"yeast gene YOL071W, incubated two hours with chemical substance",4.4
same,The level of expressed mRNA in the presence of chemical substance/The level of expressed mRNA in the absence of chemical substance,"yeast gene YOL082W, incubated two hours with chemical substance",3.4
same,The level of expressed mRNA in the presence of chemical substance/The level of expressed mRNA in the absence of chemical substance,"yeast gene YOL083W, incubated two hours with chemical substance",2.7
same,The level of expressed mRNA in the presence of chemical substance/The level of expressed mRNA in the absence of chemical substance,"yeast gene YOL117W, incubated two hours with chemical substance",1.3
same,The level of expressed mRNA in the presence of chemical substance/The level of expressed mRNA in the absence of chemical substance,"yeast gene YOL131W, incubated two hours with chemical substance",8.4
same,The level of expressed mRNA in the presence of chemical substance/The level of expressed mRNA in the absence of chemical substance,yeast gene YOL150C,10.8
same,The level of expressed mRNA in the presence of chemical substance/The level of expressed mRNA in the absence of chemical substance,"yeast gene YOL162W, incubated two hours with chemical substance",12.0
same,The level of expressed mRNA in the presence of chemical substance/The level of expressed mRNA in the absence of chemical substance,"yeast gene YOR019W, incubated two hours with chemical substance",3.5
same,The level of expressed mRNA in the presence of chemical substance/The level of expressed mRNA in the absence of chemical substance,yeast gene YOR161C,1.0
same,The level of expressed mRNA in the presence of chemical substance/The level of expressed mRNA in the absence of chemical substance,"yeast gene YOR197W, incubated two hours with chemical substance",0.8
same,The level of expressed mRNA in the presence of chemical substance/The level of expressed mRNA in the absence of chemical substance,"yeast gene YPL087W, incubated two hours with chemical substance",1.0
same,The level of expressed mRNA in the presence of chemical substance/The level of expressed mRNA in the absence of chemical substance,yeast gene YPL150W,3.1
same,The level of expressed mRNA in the presence of chemical substance/The level of expressed mRNA in the absence of chemical substance,"yeast gene YPL196W, incubated two hours with chemical substance",10.9
same,The level of expressed mRNA in the presence of chemical substance/The level of expressed mRNA in the absence of chemical substance,"yeast gene YPL206C, incubated two hours with chemical substance",1.7
same,The level of expressed mRNA in the presence of chemical substance/The level of expressed mRNA in the absence of chemical substance,"yeast gene YPL222W, incubated two hours with chemical substance",7.4
same,The level of expressed mRNA in the presence of chemical substance/The level of expressed mRNA in the absence of chemical substance,yeast gene YPL225W,1.0
same,The level of expressed mRNA in the presence of chemical substance/The level of expressed mRNA in the absence of chemical substance,"yeast gene YPR023C, incubated two hours with chemical substance",4.4
same,The level of expressed mRNA in the presence of chemical substance/The level of expressed mRNA in the absence of chemical substance,"yeast gene YPR151C, incubated two hours with chemical substance",3.0
